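These data come from cells grown in 96-well plates and exposed to compound for 48 hours at five concentrations. The concentration for 50% growth inhibition is given as GI50. TGI denotes the concentration required for complete inhibition of growth.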
tested on: SN12C renal; assay: DTP human tumour cell line panel, 48 h

Row | SMILES | GI50 | TGI
1 | CC(C)=CCc1cc(O)cc2c1OC(C=C(C)C)C1=C2C(=O)C2=C(C1=O)S(=O)(=O)CCN2 (configuration not stated) | 2.7 µM | 5.45 µM

tested on: OVCAR-4 ovarian; assay: DTP human tumour cell line panel, 48 h

Row | SMILES | TGI | GI50
2 | O=c1c2ncn(C3CCCO3)c2n(-c2ccccc2)c(=S)n1-c1ccccc1 (configuration not stated) | > 100 µM | 
3 | O=C1CCC/C=C\C[C@H]2C=CC(=O)/C2=C/C[C@H](C/C=C\CC(F)(F)F)O1 | 2.5 µM | 0.571 µM
4 | Oc1cn(-c2ccc(Cl)cc2)nc1-c1n[nH]c(=S)n1-c1ccccc1 | > 100 µM | 
5 | CC(C)=CCc1cc(O)cc2c1OC(C=C(C)C)C1=C2C(=O)C2=C(C1=O)S(=O)(=O)CCN2 (configuration not stated) | 6.72 µM | 2.77 µM

tested on: RPMI-8226 leukemia; assay: DTP human tumour cell line panel, 48 h

Row | SMILES | TGI | GI50
6 | O=c1c2ncn(C3CCCO3)c2n(-c2ccccc2)c(=S)n1-c1ccccc1 (configuration not stated) | > 100 µM | 
7 | O=C1CCC/C=C\C[C@H]2C=CC(=O)/C2=C/C[C@H](C/C=C\CC(F)(F)F)O1 | 0.858 µM | 0.275 µM
8 | Oc1cn(-c2ccc(Cl)cc2)nc1-c1n[nH]c(=S)n1-c1ccccc1 | > 100 µM | 
9 | CC(C)=CCc1cc(O)cc2c1OC(C=C(C)C)C1=C2C(=O)C2=C(C1=O)S(=O)(=O)CCN2 (configuration not stated) | 12.2 µM | 4.16 µM

tested on: MALME-3M melanoma; assay: DTP human tumour cell line panel, 48 h

Row | SMILES | GI50 | TGI
10 | O=C1CCC/C=C\C[C@H]2C=CC(=O)/C2=C/C[C@H](C/C=C\CC(F)(F)F)O1 | 0.587 µM | 2.29 µM
11 | Oc1cn(-c2ccc(Cl)cc2)nc1-c1n[nH]c(=S)n1-c1ccccc1 |  | 62.9 µM
12 | CC(C)=CCc1cc(O)cc2c1OC(C=C(C)C)C1=C2C(=O)C2=C(C1=O)S(=O)(=O)CCN2 (configuration not stated) | 1.69 µM | 3.64 µM

tested on: ACHN renal; assay: DTP human tumour cell line panel, 48 h

Row | SMILES | TGI | GI50
13 | O=c1c2ncn(C3CCCO3)c2n(-c2ccccc2)c(=S)n1-c1ccccc1 (configuration not stated) | > 100 µM | 
14 | O=C1CCC/C=C\C[C@H]2C=CC(=O)/C2=C/C[C@H](C/C=C\CC(F)(F)F)O1 | 0.629 µM | 0.333 µM
15 | Oc1cn(-c2ccc(Cl)cc2)nc1-c1n[nH]c(=S)n1-c1ccccc1 | > 100 µM | 
16 | CC(C)=CCc1cc(O)cc2c1OC(C=C(C)C)C1=C2C(=O)C2=C(C1=O)S(=O)(=O)CCN2 (configuration not stated) | > 16.7 µM | 6.14 µM

tested on: SK-MEL-28 melanoma; assay: DTP human tumour cell line panel, 48 h

Row | SMILES | TGI | GI50
17 | O=c1c2ncn(C3CCCO3)c2n(-c2ccccc2)c(=S)n1-c1ccccc1 (configuration not stated) | > 100 µM | 
18 | O=C1CCC/C=C\C[C@H]2C=CC(=O)/C2=C/C[C@H](C/C=C\CC(F)(F)F)O1 | 2.25 µM | 0.571 µM
19 | Oc1cn(-c2ccc(Cl)cc2)nc1-c1n[nH]c(=S)n1-c1ccccc1 | > 100 µM | 
20 | CC(C)=CCc1cc(O)cc2c1OC(C=C(C)C)C1=C2C(=O)C2=C(C1=O)S(=O)(=O)CCN2 (configuration not stated) | 6.04 µM | 3.12 µM

tested on: HCT-116 colon; assay: DTP human tumour cell line panel, 48 h

Row | SMILES | TGI | GI50
21 | O=c1c2ncn(C3CCCO3)c2n(-c2ccccc2)c(=S)n1-c1ccccc1 (configuration not stated) | > 100 µM | 
22 | CC(=O)c1c(O)ccc2c1c1c(n2C)C(=O)c2ccccc2C1=O | > 100 µM | 
23 | O=C1CCC/C=C\C[C@H]2C=CC(=O)/C2=C/C[C@H](C/C=C\CC(F)(F)F)O1 | 0.614 µM | 0.311 µM
24 | Oc1cn(-c2ccc(Cl)cc2)nc1-c1n[nH]c(=S)n1-c1ccccc1 | 18.7 µM | 
25 | CC(C)=CCc1cc(O)cc2c1OC(C=C(C)C)C1=C2C(=O)C2=C(C1=O)S(=O)(=O)CCN2 (configuration not stated) | 7.14 µM | 2.97 µM

tested on: RXF 393 renal; assay: DTP human tumour cell line panel, 48 h

Row | SMILES | TGI | GI50
26 | O=c1c2ncn(C3CCCO3)c2n(-c2ccccc2)c(=S)n1-c1ccccc1 (configuration not stated) | > 100 µM | 
27 | CC(=O)c1c(O)ccc2c1c1c(n2C)C(=O)c2ccccc2C1=O | > 100 µM | 
28 | O=C1CCC/C=C\C[C@H]2C=CC(=O)/C2=C/C[C@H](C/C=C\CC(F)(F)F)O1 | 1.4 µM | 0.424 µM
29 | Oc1cn(-c2ccc(Cl)cc2)nc1-c1n[nH]c(=S)n1-c1ccccc1 | 36.9 µM | 
30 | CC(C)=CCc1cc(O)cc2c1OC(C=C(C)C)C1=C2C(=O)C2=C(C1=O)S(=O)(=O)CCN2 (configuration not stated) | 12.5 µM | 3.02 µM

tested on: CAKI-1 renal; assay: DTP human tumour cell line panel, 48 h

Row | SMILES | TGI | GI50
31 | O=c1c2ncn(C3CCCO3)c2n(-c2ccccc2)c(=S)n1-c1ccccc1 (configuration not stated) | > 100 µM | 
32 | CC(=O)c1c(O)ccc2c1c1c(n2C)C(=O)c2ccccc2C1=O | > 100 µM | 
33 | O=C1CCC/C=C\C[C@H]2C=CC(=O)/C2=C/C[C@H](C/C=C\CC(F)(F)F)O1 | 1.28 µM | 0.417 µM
34 | Oc1cn(-c2ccc(Cl)cc2)nc1-c1n[nH]c(=S)n1-c1ccccc1 | 35.3 µM | 

tested on: NCI/ADR-RES ovarian; assay: DTP human tumour cell line panel, 48 h

Row | SMILES | TGI | GI50
35 | O=c1c2ncn(C3CCCO3)c2n(-c2ccccc2)c(=S)n1-c1ccccc1 (configuration not stated) | > 100 µM | 
36 | O=C1CCC/C=C\C[C@H]2C=CC(=O)/C2=C/C[C@H](C/C=C\CC(F)(F)F)O1 | 16.7 µM | 0.627 µM
37 | Oc1cn(-c2ccc(Cl)cc2)nc1-c1n[nH]c(=S)n1-c1ccccc1 | 14.1 µM | 
38 | CC(C)=CCc1cc(O)cc2c1OC(C=C(C)C)C1=C2C(=O)C2=C(C1=O)S(=O)(=O)CCN2 (configuration not stated) | > 16.7 µM | > 16.7 µM

tested on: OVCAR-5 ovarian; assay: DTP human tumour cell line panel, 48 h

Row | SMILES | TGI | GI50
39 | O=c1c2ncn(C3CCCO3)c2n(-c2ccccc2)c(=S)n1-c1ccccc1 (configuration not stated) | > 100 µM | 
40 | CC(=O)c1c(O)ccc2c1c1c(n2C)C(=O)c2ccccc2C1=O | > 100 µM | 
41 | O=C1CCC/C=C\C[C@H]2C=CC(=O)/C2=C/C[C@H](C/C=C\CC(F)(F)F)O1 | 3.11 µM | 0.67 µM
42 | Oc1cn(-c2ccc(Cl)cc2)nc1-c1n[nH]c(=S)n1-c1ccccc1 | 46.2 µM | 
43 | CC(C)=CCc1cc(O)cc2c1OC(C=C(C)C)C1=C2C(=O)C2=C(C1=O)S(=O)(=O)CCN2 (configuration not stated) | 12.5 µM | 4.34 µM

tested on: SF-539 CNS; assay: DTP human tumour cell line panel, 48 h

Row | SMILES | TGI | GI50
44 | O=c1c2ncn(C3CCCO3)c2n(-c2ccccc2)c(=S)n1-c1ccccc1 (configuration not stated) | > 100 µM | 
45 | CC(=O)c1c(O)ccc2c1c1c(n2C)C(=O)c2ccccc2C1=O | > 100 µM | 
46 | O=C1CCC/C=C\C[C@H]2C=CC(=O)/C2=C/C[C@H](C/C=C\CC(F)(F)F)O1 | 3.08 µM | 0.676 µM
47 | Oc1cn(-c2ccc(Cl)cc2)nc1-c1n[nH]c(=S)n1-c1ccccc1 | 23.1 µM | 
48 | CC(C)=CCc1cc(O)cc2c1OC(C=C(C)C)C1=C2C(=O)C2=C(C1=O)S(=O)(=O)CCN2 (configuration not stated) | 5.09 µM | 2.8 µM

tested on: NCI-H522 lung; assay: DTP human tumour cell line panel, 48 h

Row | SMILES | TGI | GI50
49 | O=c1c2ncn(C3CCCO3)c2n(-c2ccccc2)c(=S)n1-c1ccccc1 (configuration not stated) | > 100 µM | 
50 | O=C1CCC/C=C\C[C@H]2C=CC(=O)/C2=C/C[C@H](C/C=C\CC(F)(F)F)O1 | 0.537 µM | 0.257 µM
51 | Oc1cn(-c2ccc(Cl)cc2)nc1-c1n[nH]c(=S)n1-c1ccccc1 | 19.5 µM | 
52 | CC(C)=CCc1cc(O)cc2c1OC(C=C(C)C)C1=C2C(=O)C2=C(C1=O)S(=O)(=O)CCN2 (configuration not stated) | 7.03 µM | 2.94 µM

tested on: MDA-MB-435; assay: DTP human tumour cell line panel, 48 h

Row | SMILES | TGI | GI50
53 | O=c1c2ncn(C3CCCO3)c2n(-c2ccccc2)c(=S)n1-c1ccccc1 (configuration not stated) | > 100 µM | 
54 | O=C1CCC/C=C\C[C@H]2C=CC(=O)/C2=C/C[C@H](C/C=C\CC(F)(F)F)O1 | 1.42 µM | 0.449 µM
55 | Oc1cn(-c2ccc(Cl)cc2)nc1-c1n[nH]c(=S)n1-c1ccccc1 | 5.09 µM | 
56 | CC(C)=CCc1cc(O)cc2c1OC(C=C(C)C)C1=C2C(=O)C2=C(C1=O)S(=O)(=O)CCN2 (configuration not stated) | 5.8 µM | 3.05 µM

tested on: DU-145 prostate; assay: DTP human tumour cell line panel, 48 h

Row | SMILES | TGI | GI50
57 | O=c1c2ncn(C3CCCO3)c2n(-c2ccccc2)c(=S)n1-c1ccccc1 (configuration not stated) | > 100 µM | 
58 | CC(=O)c1c(O)ccc2c1c1c(n2C)C(=O)c2ccccc2C1=O | > 100 µM | 
59 | O=C1CCC/C=C\C[C@H]2C=CC(=O)/C2=C/C[C@H](C/C=C\CC(F)(F)F)O1 | 2.33 µM | 0.607 µM
60 | Oc1cn(-c2ccc(Cl)cc2)nc1-c1n[nH]c(=S)n1-c1ccccc1 | > 100 µM | 
61 | CC(C)=CCc1cc(O)cc2c1OC(C=C(C)C)C1=C2C(=O)C2=C(C1=O)S(=O)(=O)CCN2 (configuration not stated) | 5.37 µM | 2.93 µM

tested on: SW-620 colon; assay: DTP human tumour cell line panel, 48 h

Row | SMILES | TGI | GI50
62 | O=c1c2ncn(C3CCCO3)c2n(-c2ccccc2)c(=S)n1-c1ccccc1 (configuration not stated) | > 100 µM | 
63 | O=C1CCC/C=C\C[C@H]2C=CC(=O)/C2=C/C[C@H](C/C=C\CC(F)(F)F)O1 | 2.05 µM | 0.508 µM
